Here are results for 18 molecules from patent publication US20020119917A1, “ANTI-INFLAMMATORY PEPTIDES DERIVED FROM C-REACTIVE PROTEIN” (priority 1996, published 2002).

Non-standard residues stand in square brackets, D forms with d. Residues, ends and D or L forms follow the SMILES beside them. No end group written: not given here. *: point of attachment. MeOSuc = COC(=O)CCC(=O)*; Ahx = NCCCCCC(=O)O; Sar = CNCC(=O)O

For the first test, the target named is T1, human leukocyte elastase (hLE) (Homo sapiens, UniProt P08246).
T1 construct: Neutrophils (1.4 billion) were isolated from whole blood obtained from a single healthy laboratory donor; from tissue; host or cells: neutrophils from whole blood of a single healthy donor
T1 sequence (P08246 30-247 limits assumed): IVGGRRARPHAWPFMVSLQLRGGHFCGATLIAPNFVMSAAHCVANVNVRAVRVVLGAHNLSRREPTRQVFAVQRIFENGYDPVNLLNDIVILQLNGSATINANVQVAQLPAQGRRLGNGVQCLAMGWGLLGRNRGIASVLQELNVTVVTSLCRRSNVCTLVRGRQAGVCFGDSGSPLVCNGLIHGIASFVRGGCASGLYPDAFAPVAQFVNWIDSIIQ
Nature of the test: In-vitro inhibition of hLE (cleavage of MeOSuc-AAPV-NA). In kind it is biochemical.
Conditions: not given
The procedure:
The enzymatic activity was assayed with MeOSuc-AAPV-NA for hLE determination and Suc-AAPF-NA for hCG determination (both in 100 mM Hepes buffer, pH 7.4, containing 0.05% of the […] detergent Brij-35). The activities of the individual enzymatic fractions were 100% free from cross-contamination. […] The fractions containing hLE and hCG were dialyzed each against 0.1% pyridinium acetate, pH 5.3, divided into 20 aliquots, lyophilized, and stored at −20° C. until use.
Peptides were dissolved in 100 mM Hepes buffer pH 7.4 containing 0.1% Brij-35 with 10% DMSO to yield 600 μM solutions, which were used to make further dilutions with the same buffer, and 80 μL aliquots were added in duplicates to 96-well plates. The substrate, 600 or 900 μM MeOSuc-AAPV-NA in the same buffer with 5% DMSO, was added to each well in addition to the blank wells, and the plate was placed in the plate reader equilibrated to 37° C. (Dynateck MR-6000). Lyophilized aliquots of hLE were dissolved in 1600 μL of 100 mM Hepes buffer without DMSO, and 80 μL of the enzyme solution was added to the peptides and substrate to initiate the reaction. […] The final volume was 240 μL containing: 5% DMSO, 1-200 μM of peptide, 200 μM substrate, and 0.75 μg (about 25 picomol) enzyme.
For hLE, V is determined by fitting a linear equation to the first 6 time-points (10 min) of the kinetics data using the least squares method. […] From calculating the error in the slope of the equation, the relative error for Ki was deduced:
Ki={slope*(1+[S]/Km)}^−1 because Ki=[I]*{(1+[S]/Km)*(Vo/Vi−1)}^−1.
The hLE inhibitory capability of CRP-derived peptides was evaluated by inhibiting the enzymatic cleavage of MeOSuc-AAPV-NA as described in Materials and Methods (section v).
Consider `CC[C@H](C)[C@H](NC(=O)[C@H](Cc1c[nH]cn1)NC(=O)[C@@H](NC(=O)CN(C)C(=O)[C@H](C)NC(=O)[C@@H](NC(=O)[C@@H](NC(=O)[C@@H](N)C(C)C)[C@@H](C)O)C(C)C)C(C)C)C(=O)O` [Peptide 30, Val89-Thr-Val-Ala-Sarcosine-Val-His-Ile96] (H-VTVA[Sar]VHI-OH; N-terminus and C-terminus assumed), for which the “hLE inhibitory capability (in words)” value is reported as “almost completely lost”.

On to “Thr200-Lys-Pro-Gln-Leu-Trp-Pro206 [reference compound]”, for which the “hLE inhibitory capability (in words)” value is on record as “No significant inhibition”.

Take “Val-Ala-Pro-Val (VAPV; printed: Val-Ala-Pro-Val) [reference compound]”: the “hLE inhibitory capability (in words)” value is recorded as “minute”.

With “Asp112-Gly-Lys-Pro-Arg-Val-Arg-Lys119 [reference compound]”, the “hLE inhibitory capability (in words)” value is recorded as “No significant inhibition”.

With `CC[C@H](C)[C@H](NC(=O)[C@H](Cc1c[nH]cn1)NC(=O)[C@@H](NC(=O)[C@@H]1CCCN1C(=O)[C@H](C)NC(=O)[C@@H](NC(=O)[C@@H](NC(=O)[C@@H](NC(=O)CCCCCNC(C)=O)C(C)C)[C@@H](C)O)C(C)C)C(C)C)C(=O)O` [Peptide 22, Acetyl-aminocaproyl-Val89-Thr-Val-Ala-Pro-Val-His-Ile96] (Ac-[Ahx]VTVAPVHI-OH), the inhibition constant Ki was determined as 210 ± 30 µM.

For “Thr76-Val-Gly-Gly-Ser80 [reference compound]”, the “hLE inhibitory capability (in words)” value is reported as “No significant inhibition”.

As for “Ser18-Tyr-Val-Ser-Leu-Lys23 [reference compound]”, the “hLE inhibitory capability (in words)” value was “No significant inhibition”.

`CC[C@H](C)[C@H](NC(=O)[C@H](Cc1c[nH]cn1)NC(=O)[C@@H](NC(=O)[C@H]1CCCN1C(=O)[C@H](C)NC(=O)[C@@H](NC(=O)[C@@H](NC(=O)[C@@H](N)C(C)C)[C@@H](C)O)C(C)C)C(C)C)C(=O)O` [Peptide 27, Val89-Thr-Val-Ala-(D)Pro-Val-His-Ile96] (H-VTVA[dP]VHI-OH; N-terminus and C-terminus assumed) came in with a Ki of 560 ± 170 µM.

In the case of “Val153-Gly-Asp-Ile-Gly-Asn-Val159 [reference compound]”, the “hLE inhibitory capability (in words)” value is “No significant inhibition”.

`CC[C@H](C)[C@H](NC(=O)[C@H](Cc1c[nH]cn1)NC(=O)[C@@H](NC(=O)[C@@H]1CCCN1C(=O)[C@H](C)NC(=O)[C@@H](NC(=O)[C@@H](NC(=O)[C@@H](NC(=O)CCC(=O)OC)C(C)C)[C@@H](C)O)C(C)C)C(C)C)C(=O)O` [Peptide 15, MeOSuc-Val89-Thr-Val-Ala-Pro-Val-His-Ile96] (MeOSuc-VTVAPVHI-OH) displayed a Ki of 160 ± 30 µM.

As for “Asp70-Ile-Gly-Tyr-Ser74 [reference compound]”, the “hLE inhibitory capability (in words)” value is on record as “No significant inhibition”.

In turn, `CC[C@H](C)[C@H](NC(=O)[C@@H](Cc1c[nH]cn1)NC(=O)[C@H](NC(=O)[C@H]1CCCN1C(=O)[C@H](C)NC(=O)[C@@H](NC(=O)[C@@H](NC(=O)[C@@H](N)C(C)C)[C@@H](C)O)C(C)C)C(C)C)C(=O)O` [Peptide 28, Val89-Thr-Val-Ala-(D)Pro-(D)Val-(D)His-Ile96] (H-VTVA[dP][dV][dH]I-OH; N-terminus and C-terminus assumed) yielded an inhibitory constant (Ki) of 2300 ± 300 µM.

For “Phe84-Glu-Val-Pro-Glu-Val-Thr90 [reference compound]”, the “hLE inhibitory capability (in words)” value was “No significant inhibition”.

“Gln203-Leu-Trp-Pro206 [reference compound]”: the “hLE inhibitory capability (in words)” value is recorded as “No significant inhibition”.

“VTVAPVHIPP-NH2 [Peptide 14, Val89-Thr-Val-Ala-Pro-Val-His-Ile96-Pro-Pro-NH2]” gave a Ki of 85 ± 10 µM.

“VTVAPVHIP-NH2 [Peptide 12, Val89-Thr-Val-Ala-Pro-Val-His-Ile96-Pro-NH2]” registered a Ki of 70 ± 5 µM.

The test is the same for the next values; noted with them: substrate MeOSuc-AAPV-NA, 100 mM Hepes pH 7.4, 37° C.; read-out: hLE Ki.
For `CC[C@H](C)[C@H](NC(=O)[C@H](Cc1c[nH]cn1)NC(=O)[C@@H](NC(=O)CN(C)C(=O)[C@H](C)NC(=O)[C@@H](NC(=O)[C@@H](NC(=O)[C@@H](N)C(C)C)[C@@H](C)O)C(C)C)C(C)C)C(=O)O` [Peptide 30, Val89-Thr-Val-Ala-Sarcosine-Val-His-Ile96] (H-VTVA[Sar]VHI-OH; N-terminus and C-terminus assumed), the Ki amounted to 1400 ± 500 µM.

Regarding “VAPVHI [Peptide 26, Val91-Ala-Pro-Val-His-Ile96]”, the Ki was 1000 ± 250 µM.

Consider “VTVAPVSI [Peptide 9, Val89-Thr-Val-Ala-Pro-Val-Ser-Ile96]”, for which the Ki was determined as 200 ± 20 µM.
